Test results taken from patent US10870652B2, “Compounds and methods for modulating bruton's tyrosine kinase” (CORVUS PHARMACEUTICALS, INC., priority 2016, dated 2020).

Columns and labels:
Format in all cases: biochemical
JAK3 = target: T1, JAK3 (Homo sapiens, UniProt P52333); test: JAK3 IC50 kinase inhibition assay
T1 sequence (P52333 1-1124): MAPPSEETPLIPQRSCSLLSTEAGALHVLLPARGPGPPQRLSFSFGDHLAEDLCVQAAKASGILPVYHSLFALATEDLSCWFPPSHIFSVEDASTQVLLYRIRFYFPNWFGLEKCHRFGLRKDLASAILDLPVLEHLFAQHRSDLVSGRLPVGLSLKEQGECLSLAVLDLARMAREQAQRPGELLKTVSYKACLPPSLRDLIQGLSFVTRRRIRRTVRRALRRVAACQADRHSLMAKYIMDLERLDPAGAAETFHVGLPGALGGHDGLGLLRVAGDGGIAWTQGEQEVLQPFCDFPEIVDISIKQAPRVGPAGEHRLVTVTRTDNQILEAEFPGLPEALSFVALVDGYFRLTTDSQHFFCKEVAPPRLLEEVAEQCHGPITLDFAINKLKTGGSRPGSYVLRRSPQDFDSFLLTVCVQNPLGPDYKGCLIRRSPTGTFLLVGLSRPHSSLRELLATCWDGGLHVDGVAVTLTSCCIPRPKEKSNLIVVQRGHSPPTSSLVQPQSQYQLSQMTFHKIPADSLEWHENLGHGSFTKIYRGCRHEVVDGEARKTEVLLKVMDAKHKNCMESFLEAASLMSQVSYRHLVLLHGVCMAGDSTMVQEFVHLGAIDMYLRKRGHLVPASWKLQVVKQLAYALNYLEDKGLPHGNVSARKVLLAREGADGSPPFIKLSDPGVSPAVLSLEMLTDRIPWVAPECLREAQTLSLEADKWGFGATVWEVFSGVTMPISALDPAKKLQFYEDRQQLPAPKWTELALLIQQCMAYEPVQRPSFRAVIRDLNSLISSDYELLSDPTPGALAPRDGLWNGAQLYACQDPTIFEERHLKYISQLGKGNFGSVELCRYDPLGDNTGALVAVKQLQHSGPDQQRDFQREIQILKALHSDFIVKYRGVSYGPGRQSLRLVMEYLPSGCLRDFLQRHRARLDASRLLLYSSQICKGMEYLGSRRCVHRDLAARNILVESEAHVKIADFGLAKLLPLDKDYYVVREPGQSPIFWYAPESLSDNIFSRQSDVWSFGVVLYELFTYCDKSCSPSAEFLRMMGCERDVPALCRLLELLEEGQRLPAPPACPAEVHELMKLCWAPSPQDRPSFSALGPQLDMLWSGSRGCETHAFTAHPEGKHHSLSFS

ITK = target: T2, ITK (Homo sapiens, UniProt Q08881); test: ITK IC50 kinase inhibition assay
T2 sequence (Q08881 1-620): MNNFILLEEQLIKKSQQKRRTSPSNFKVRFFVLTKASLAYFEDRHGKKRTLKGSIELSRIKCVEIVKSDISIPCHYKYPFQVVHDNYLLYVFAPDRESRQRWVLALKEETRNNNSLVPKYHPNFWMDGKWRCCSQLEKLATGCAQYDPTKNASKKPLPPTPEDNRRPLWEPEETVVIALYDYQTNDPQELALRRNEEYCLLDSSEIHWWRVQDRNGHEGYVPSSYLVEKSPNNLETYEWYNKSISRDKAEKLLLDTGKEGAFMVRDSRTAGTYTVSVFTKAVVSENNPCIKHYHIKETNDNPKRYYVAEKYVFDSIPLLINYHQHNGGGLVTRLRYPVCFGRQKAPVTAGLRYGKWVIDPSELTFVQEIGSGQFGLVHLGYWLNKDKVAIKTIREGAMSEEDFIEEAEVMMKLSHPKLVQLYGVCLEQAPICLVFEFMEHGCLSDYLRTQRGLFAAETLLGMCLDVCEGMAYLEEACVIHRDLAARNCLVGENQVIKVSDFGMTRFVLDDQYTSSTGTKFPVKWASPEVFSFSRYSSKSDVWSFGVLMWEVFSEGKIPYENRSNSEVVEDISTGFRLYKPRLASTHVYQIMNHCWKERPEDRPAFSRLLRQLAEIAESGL

BTK = BTK (Homo sapiens, UniProt Q06187); test: BTK IC50 kinase inhibition assay
BTK, sequence (Q06187 whole entry): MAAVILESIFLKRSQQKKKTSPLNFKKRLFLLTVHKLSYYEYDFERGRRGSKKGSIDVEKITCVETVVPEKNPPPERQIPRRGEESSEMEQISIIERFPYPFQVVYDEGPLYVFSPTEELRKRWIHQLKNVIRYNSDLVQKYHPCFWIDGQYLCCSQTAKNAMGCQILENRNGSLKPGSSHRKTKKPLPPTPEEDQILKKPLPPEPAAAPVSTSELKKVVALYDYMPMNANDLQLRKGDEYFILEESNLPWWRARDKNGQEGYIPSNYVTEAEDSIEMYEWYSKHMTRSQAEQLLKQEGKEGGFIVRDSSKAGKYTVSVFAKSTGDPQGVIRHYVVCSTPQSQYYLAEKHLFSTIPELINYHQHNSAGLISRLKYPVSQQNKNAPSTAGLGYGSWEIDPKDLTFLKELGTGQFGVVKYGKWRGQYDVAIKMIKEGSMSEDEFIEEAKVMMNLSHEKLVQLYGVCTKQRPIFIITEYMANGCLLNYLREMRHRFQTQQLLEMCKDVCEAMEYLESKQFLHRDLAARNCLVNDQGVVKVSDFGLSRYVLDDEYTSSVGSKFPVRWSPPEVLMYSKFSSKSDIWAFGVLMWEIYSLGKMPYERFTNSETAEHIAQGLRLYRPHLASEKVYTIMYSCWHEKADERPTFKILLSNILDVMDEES

TXK = target: T3, TXK (Homo sapiens, UniProt P42681); test: TXK IC50 kinase inhibition assay
T3 sequence (P42681 1-527): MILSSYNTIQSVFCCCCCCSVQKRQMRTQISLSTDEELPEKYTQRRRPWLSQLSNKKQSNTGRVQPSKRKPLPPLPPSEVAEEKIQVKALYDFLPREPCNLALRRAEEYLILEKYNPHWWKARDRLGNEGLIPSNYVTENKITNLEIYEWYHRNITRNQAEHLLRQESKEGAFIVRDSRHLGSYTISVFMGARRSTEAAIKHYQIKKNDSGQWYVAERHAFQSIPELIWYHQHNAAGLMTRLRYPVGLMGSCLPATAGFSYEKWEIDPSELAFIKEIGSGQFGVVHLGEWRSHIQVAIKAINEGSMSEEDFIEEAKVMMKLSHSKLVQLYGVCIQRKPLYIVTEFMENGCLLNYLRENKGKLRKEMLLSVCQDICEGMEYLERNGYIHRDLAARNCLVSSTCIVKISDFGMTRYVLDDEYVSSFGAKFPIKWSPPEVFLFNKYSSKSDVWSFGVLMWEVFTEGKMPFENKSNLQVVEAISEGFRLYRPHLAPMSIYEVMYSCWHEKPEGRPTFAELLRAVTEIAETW

| IC50 (JAK3) [nM] | IC50 (ITK) [nM] | IC50 (BTK) [nM] | IC50 (TXK) [nM] | SMILES |
| --- | --- | --- | --- | --- |
| > 500 | > 500 | < 100 | 100 to 500 | CC#CC(=O)N1CC[C@@H](c2nc(-c3ccc(Oc4ccccc4)cc3)c3cnccn23)C1 [Compound A32, (R)-1-(3-(1-(4-phenoxyphenyl)imidazo[1,5-a]pyrazin-3-yl)pyrrolidin-1-yl)but-2-yn-1-one] |
| > 500 | > 500 | 100 to 500 | > 500 | C=CC(=O)N1CCC[C@@H](n2nc(-c3ccc(Oc4ccccc4)cc3C#N)c3cncnc32)C1 [Compound A33, (R)-2-(1-(1-acryloylpiperidin-3-yl)-H-pyrazolo[3,4-d]pyrimidin-3-yl)-5-phenoxybenzonitrile] |
| > 500 | > 500 | < 100 | > 500 | C=CC(=O)N1CCC(Cn2nc(-c3ccc(Oc4ccccc4)cc3)c3cncnc32)CC1 [Compound A34, 1-(4-((3-(4-phenoxyphenyl)-1H-pyrazolo[3,4-d]pyrimidin-1-yl)methyl)piperidin-1-yl)prop-2-en-1-one] |
| > 500 | > 500 | < 100 | 100 to 500 | C=CC(=O)N1CC(Cn2nc(-c3ccc(Oc4ccccc4)cc3)c3cncnc32)C1 [Compound A35, 1-(3-((3-(4-phenoxyphenyl)-1H-pyrazolo[3,4-d]pyrimidin-1-yl)methyl)azetidin-1-yl)prop-2-en-1-one] |
| > 500 | > 500 | 100 to 500 | 100 to 500 | C=CC(=O)N1CCC(n2nc(-c3ccc(Oc4ccccc4)cc3)c3cncnc32)CC1 [Compound A36, 1-(4-(3-(4-phenoxyphenyl)-1H-pyrazolo[3,4-d]pyrimidin-1-yl)piperidin-1-yl)prop-2-en-1-one] |
| > 500 | > 500 | < 100 | 100 to 500 | C=CC(=O)N1CC2(CC(n3nc(-c4ccc(Oc5ccccc5)cc4)c4cncnc43)C2)C1 [Compound A37, 1-(6-(3-(4-phenoxyphenyl)-1H-pyrazolo[3,4-d]pyrimidin-1-yl)-2-azaspiro[3.3]heptan-2-yl)prop-2-en-1-one] |
| > 500 | > 500 | < 100 | < 100 | C=CC(=O)Nc1ccccc1Cn1nc(-c2ccc(Oc3ccccc3)cc2)c2cncnc21 [Compound A38, N-(2-((3-(4-phenoxyphenyl)-1H-pyrazolo[3,4-d]pyrimidin-1-yl)methyl)phenyl)acrylamide] |
| > 500 | > 500 | < 100 | < 100 | C=CC(=O)N1CCC[C@@H](n2nc(-c3ccc(Oc4cccc(F)c4)cc3)c3cncnc32)C1 [Compound A39, (R)-1-(3-(3-(4-(3-fluorophenoxy)phenyl)-1H-pyrazolo[3,4-d]pyrimidin-1-yl)piperidin-1-yl)prop-2-en-1-one] |
| > 500 | > 500 | < 100 | < 100 | C=CC(=O)N1CCC[C@@H](n2nc(-c3ccc(Oc4ccccc4F)cc3)c3cncnc32)C1 [Compound A40, (R)-1-(3-(3-(4-(2-fluorophenoxy)phenyl)-1H-pyrazolo[3,4-d]pyrimidin-1-yl)piperidin-1-yl)prop-2-en-1-one] |
| > 500 | > 500 | < 100 | < 100 | C=CC(=O)N1CC(F)(F)C[C@H]1Cn1nc(-c2ccc(Oc3ccccc3)cc2)c2cncnc21 [Compound A41, (S)-1-(4,4-difluoro-2-((3-(4-phenoxyphenyl)-1H-pyrazolo[3,4-d]pyrimidin-1-yl)methyl)pyrrolidin-1-yl)prop-2-en-1-one] |
| > 500 | > 500 | 100 to 500 | > 500 | C=CC(=O)NCCn1nc(-c2ccc(Oc3ccccc3)cc2)c2cncnc21 [Compound A42, N-(2-(3-(4-phenoxyphenyl)-1H-pyrazolo[3,4-d]pyrimidin-1-yl)ethyl)acrylamide] |
| > 500 | > 500 | < 100 | 100 to 500 | C=CC(=O)N[C@@H](C)Cn1nc(-c2ccc(Oc3ccccc3)cc2)c2cncnc21 [Compound A43, (S)—N-(1-(3-(4-phenoxyphenyl)-1H-pyrazolo[3,4-d]pyrimidin-1-yl)propan-2-yl)acrylamide] |
| > 500 | > 500 | < 100 | 100 to 500 | C=CC(=O)N1CCCC[C@H]1Cn1nc(-c2ccc(Oc3ccccc3)cc2)c2cncnc21 [Compound A44, (S)-1-(2-((3-(4-phenoxyphenyl)-1H-pyrazolo[3,4-d]pyrimidin-1-yl)methyl)piperidin-1-yl)prop-2-en-1-one] |
| > 500 | > 500 | < 100 | < 100 | C=CC(=O)N1CCC[C@@]1(C)Cn1nc(-c2ccc(Oc3ccccc3)cc2)c2cncnc21 [Compound A45, (S)-1-(2-methyl-2-((3-(4-phenoxyphenyl)-1H-pyrazolo[3,4-d]pyrimidin-1-yl)methyl)pyrrolidin-1-yl)prop-2-en-1-one] |
| > 500 | > 500 | < 100 | < 100 | C=CC(=O)N1CCC[C@H]1Cn1nc(-c2ccc(Oc3cccc(CC)c3)cc2)c2cncnc21 [Compound A46, (S)-1-(2-((3-(4-(3-ethylphenoxy)phenyl)-1H-pyrazolo[3,4-d]pyrimidin-1-yl)methyl)pyrrolidin-1-yl)prop-2-en-1-one] |
| > 500 | > 500 | < 100 | < 100 | C=CC(=O)N1CCC[C@H]1Cn1nc(-c2ccc(Oc3cccc(C(F)F)c3)cc2)c2cncnc21 [Compound A47, (S)-1-(2-((3-(4-(3-(difluoromethyl)phenoxy)phenyl)-1H-pyrazolo[3,4-d]pyrimidin-1-yl)methyl)pyrrolidin-1-yl)prop-2-en-1-one] |
| > 500 | > 500 | < 100 | < 100 | C=CC(=O)N1CCC[C@H]1Cn1nc(-c2ccc(Oc3cccc(C)c3)cc2)c2cncnc21 [Compound A48, (S)-1-(2-((3-(4-(m-tolyloxy)phenyl)-1H-pyrazolo[3,4-d]pyrimidin-1-yl)methyl)pyrrolidin-1-yl)prop-2-en-1-one] |
| > 500 | > 500 | < 100 | < 100 | C=CC(=O)N1CC(C)(C)C[C@H]1Cn1nc(-c2ccc(Oc3ccccc3)cc2)c2cncnc21 [Compound A49, (S)-1-(4,4-dimethyl-2-((3-(4-phenoxyphenyl)-1H-pyrazolo[3,4-d]pyrimidin-1-yl)methyl)pyrrolidin-1-yl)prop-2-en-1-one] |
